Tests used:
Type in all cases: in vivo
2-methylisoborneol = assay: DNA1-19-1 second and third pond efficacy studies: MIB levels; conditions: second and third efficacy study; 1, 0.3, and 0.1 μM
Description: (§1) The method described by Schrader et al. (2000) was used to determine the potential for using the anthraquinone derivatives as selective algicides in catfish aquaculture ponds. All catfish ponds used in efficacy tests were maintained using commercial pond management practices and were located at the Thad Cochran Pond Facility, Mississippi State University, Stoneville, Miss. Anthraquinone analogs were dissolved in deionized water before application to water within the limnocorrals.
(§2) Limnocorrals in which test compound was applied to the enclosed water were randomly selected, and control (no test compound applied) limnocorrals were included in each efficacy study. For each sampling, two water samples (250 mL) were obtained from within each limnocorral (approximately 6-8 cm below the water surface and from opposite sides of each limnocorral) and mixed together in a 500 mL sample bottle to provide a representative sample of the water contained within the limnocorral.
In the second study with DNA1-19-1, twelve limnocorrals that were the same size as those used in the first study were placed in another 4-ha earthen catfish pond. […] The sampling regime and procedures used in the first study were followed in a similar manner, except that water samples were obtained before DNA1-19-1 application, 16 hours after application, and at days 2, 4, and 7. […]

Oscillatoria perornata = assay: DNA2-59-1 first pond efficacy study: O. perornata abundance; conditions: first study, 0.1, 0.3 and 1 μM
Description: as §1
Limnocorrals in which test compound was applied to the enclosed water were randomly selected, and control (no test compound applied) limnocorrals were included in each efficacy study. […]
In the first study, application rates of 0.1 μM (37.7 μg/L), 0.3 μM ([…]), and 1.0 μM (377 μg/L) of DNA2-59-1 were tested using limnocorrals (three replicates per concentration) that were of the same type used for testing DNA1-19-1. […] Water samples were also analyzed to determine the persistence of DNA2-59-1 in the pond water, and this analysis was performed by using high-pressure liquid chromatography (HPLC) (method and results are described later).

Oscillatoria geminata = assay: DNA2-59-1 second pond efficacy study: Oscillatoria geminata abundance; conditions: 0.3 μM
Description: as §1, §2
In the second efficacy test with DNA2-59-1, six limnocorrals (1.53 m in diameter and 1.53 m high) were placed in a 0.1-ha earthen pond containing a heavy bloom of O. perornata. The same delay in mixing the water within the limnocorrals used in the first efficacy study was utilized. Water within three randomly selected limnocorrals received an application rate of 0.3 μM DNA2-59-1, and the other three limnocorrals were controls. […]

CCN(CC)CCCC(C)NCc1ccc2c(c1)C(=O)c1ccccc1C2=O.O=P(O)(O)O.O=P(O)(O)O (stereo not drawn) [DNA1-19-1, 2-[methylamino-N-(1′-methyl-4′-N,N-diethylaminobutyl)]-9,10-anthraquinone diphosphate] was tested. Which “2-methylisoborneol levels compared to controls (result in words)” value (2-methylisoborneol) did it give?
The value was “lack of reduction”.

Which results are given for CC(C)NCc1ccc2c(c1)C(=O)c1ccccc1C2=O [DNA2-59-1, 2-[methylamino-N-(1′-methylethyl)]-9,10-anthraquinone monophosphate]?
numbers of O. perornata filaments compared to controls (result in words) (Oscillatoria perornata): significantly reduced; Numbers of Oscillatoria geminata (result in words) (Oscillatoria geminata): reduced by application of 0.3 μM DNA2-59-1, though not significantly
